From US12371432B2, “Haloallylamine compounds and application thereof” (TransThera Sciences (Nanjing), Inc., priority 2019, dated 2025)
Where a name gives a salt, the structure may show the parent alone.

How the values were obtained:
rhVAP-1 = target: T1, rhVAP-1 (Homo sapiens, UniProt Q16853); test: Inhibitory activity against rhVAP-1 enzyme (Biological Example 2); format: biochemical; conditions: Table 2; benzylamine substrate, Amplex Red/HRP
T1 construct: purchased PeproTech
T1 sequence (Q16853 27-763 limits assumed): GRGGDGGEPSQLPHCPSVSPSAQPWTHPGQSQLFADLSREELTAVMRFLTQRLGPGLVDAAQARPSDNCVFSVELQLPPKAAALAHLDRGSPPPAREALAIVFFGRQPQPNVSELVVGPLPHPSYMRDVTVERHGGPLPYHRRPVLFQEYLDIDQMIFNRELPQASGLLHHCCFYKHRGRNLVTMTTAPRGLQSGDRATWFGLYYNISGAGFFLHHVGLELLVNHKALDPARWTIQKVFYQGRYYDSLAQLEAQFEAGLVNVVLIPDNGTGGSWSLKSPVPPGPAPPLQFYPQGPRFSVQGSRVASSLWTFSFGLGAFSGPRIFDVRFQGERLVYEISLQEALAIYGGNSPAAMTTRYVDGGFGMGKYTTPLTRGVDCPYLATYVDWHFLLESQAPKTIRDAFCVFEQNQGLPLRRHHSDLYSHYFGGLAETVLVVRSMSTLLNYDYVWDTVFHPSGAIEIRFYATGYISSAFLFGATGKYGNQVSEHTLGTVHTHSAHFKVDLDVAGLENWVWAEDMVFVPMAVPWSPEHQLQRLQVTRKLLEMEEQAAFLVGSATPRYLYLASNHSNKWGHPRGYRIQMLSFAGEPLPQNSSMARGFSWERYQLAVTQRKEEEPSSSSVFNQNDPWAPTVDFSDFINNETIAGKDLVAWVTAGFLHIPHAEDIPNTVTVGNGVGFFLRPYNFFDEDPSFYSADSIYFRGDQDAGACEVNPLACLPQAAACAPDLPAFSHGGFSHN
Protocol: 1. Inhibitory Activity of Compounds Against rhVAP-1 Enzyme
(§1) (1) Instrument, Consumable and Reagent
Microplate reader (Perkin Elmer, Nivo 5S), black unclear-bottom 96-well plate (Corning) and rhVAP-1 (PeproTech)
(§2) (2) Preparation of Concentration Gradient Compound Solutions
(§3) An appropriate amount of the compound to be tested was taken, dissolved in DMSO to 10 mM and then stored. Before the study, an appropriate amount of mother liquor of the 10 mM compound to be tested was taken and gradiently diluted 3-fold with DMSO, 10 concentration gradients in total. Each concentration gradient was then diluted 100-fold with 0.1 M of PBS.
(§4) (3) Preparation of Enzyme Solutions
An appropriate amount of protein diluent was added into rhVAP-1 powder, obtaining 1 mg/mL of mother liquor for storage. Before the study, PBS was used to carry out dilution to obtain enzyme solutions of 4× concentrations.
(§5) (4) Preparation of Substrate Mixtures of 2× Concentrations
(§6) An appropriate amount of benzylamine was weighed and dissolved with PBS to obtain 200 mM of benzylamine solution. The benzylamine solution was added with 2 mM of Amplex Red mother liquor and 500 U/mL of HRP mother liquor and diluted with PBS to obtain substrate mixtures of 2× concentrations.
(§7) 10 μL compound solutions of different concentrations, 25 μL rhVAP-1 enzyme solutions of 4× concentrations and 15 μL of PBS were first added into a 96-well plate, shaken to be mixed uniformly and then incubated at 37° C. for 30 min. 50 μL substrate mixtures of 2× concentrations were then added into each well, and the microplate reader was immediately used to perform detection with 580 nm (20 nm) exciting light and 620 nm (10 nm) emission light for 5 min each time, 30 min in total. The inhibition rate was calculated according to the following formula: V (RFU/min)=(Ft (RFU)−F0 (RFU))/(time(min)) Inhibition rate (%)=100%−Vcmpd (RFU/min)/Vmax (RFU/min)×100%
(§8) V: fluorescence change rate; Ft: fluorescence reading at time point t; F0: initial fluorescence reading; Time: duration t; Vcmpd: fluorescence change rate of tested compound; Vmax: Max hole fluorescence change rate.
(§9) (6) Fitting of Dose-Response Curve
(§10) With the log value of concentration as the X axis and the percent inhibition rate as the Y axis, the log (inhibitor) vs. response-variable slope of analysis software GraphPad Prism 5 was used to fit a dose-response curve, thus obtaining the IC50 value of activity of each compound against the enzyme.

rhAOC1 = target: T2, rhAOC1 (Homo sapiens, UniProt P19801); test: Selectivity against rhAOC1 enzyme (Biological Example 2); format: biochemical; conditions: Table 2; histamine substrate, Amplex Red/HRP
T2 construct: purchased R&D
T2 sequence (P19801 20-751): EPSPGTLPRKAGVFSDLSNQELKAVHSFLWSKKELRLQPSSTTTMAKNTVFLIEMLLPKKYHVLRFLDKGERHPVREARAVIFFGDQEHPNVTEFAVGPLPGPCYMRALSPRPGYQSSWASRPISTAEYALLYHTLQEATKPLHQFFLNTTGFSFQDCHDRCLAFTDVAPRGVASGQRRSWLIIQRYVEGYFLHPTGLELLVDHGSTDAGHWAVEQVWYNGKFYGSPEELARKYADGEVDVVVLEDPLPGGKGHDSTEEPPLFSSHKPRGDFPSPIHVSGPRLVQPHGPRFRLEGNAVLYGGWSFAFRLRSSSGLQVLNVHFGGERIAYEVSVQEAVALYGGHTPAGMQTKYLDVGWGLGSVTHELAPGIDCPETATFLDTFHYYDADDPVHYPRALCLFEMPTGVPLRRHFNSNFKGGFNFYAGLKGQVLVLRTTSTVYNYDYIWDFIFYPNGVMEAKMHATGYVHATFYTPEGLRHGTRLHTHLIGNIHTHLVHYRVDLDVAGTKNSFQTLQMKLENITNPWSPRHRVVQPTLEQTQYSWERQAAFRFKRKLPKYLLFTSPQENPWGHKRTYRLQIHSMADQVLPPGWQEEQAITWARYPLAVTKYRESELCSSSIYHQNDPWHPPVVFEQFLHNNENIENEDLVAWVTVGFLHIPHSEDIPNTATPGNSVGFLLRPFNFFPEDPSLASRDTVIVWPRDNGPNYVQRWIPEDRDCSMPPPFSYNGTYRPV
Protocol: 2. Selectivity of Compounds Against rhAOC1 Enzyme
as §1
Microplate reader (Perkin Elmer, Nivo 5S), black unclear-bottom 96-well plate (Corning) and rhAOC1 (R&D)
as §2
as §3, with “10-fold” for “100-fold”
as §4
An appropriate amount of rhAOC1 mother liquor with a concentration of 0.441 mg/mL was taken and diluted with an appropriate amount of 50 mM HEPES buffer solution to obtain enzyme solutions of 4× concentrations.
as §5
as §6, with “histamine” for “benzylamine”, “50 mM of HEPES buffer solution” for “PBS”, “20” for “200”
as §7, with “rhAOC1” for “rhVAP-1”, “50 mM HEPES buffer solution” for “PBS”, “detect fluorescence intensity of each well” for “perform detection”
as §8, §9, §10

SMILES	IC50 (rhVAP-1)	IC50 (rhAOC1)
NC/C(=C\F)Cn1cc2c(n1)CCNC2=O [Compound A23 hydrochloride, (E)-2-(2-(aminomethyl)-3-fluoroallyl)-2,5,6,7-tetrahydro-4H-pyrazolo[4,3-c]pyridin-4-one]	39 nM	–
NC/C(=C\F)Cn1cc2c(n1)CCN(CC1CC1)C2=O [Compound A48 hydrochloride, (E)-2-(2-(aminomethyl)-3-fluoroallyl)-5-(cyclopropylmethyl)-2,5,6,7-tetrahydro-4H-pyrazolo[4,3-c]pyridin-4-one]	12 nM	–
NC/C(=C\F)Cn1ccc2cc(C(=O)N3CCCC3)ccc21 [Compound C7 hydrochloride, (E)-(1-(2-(aminomethyl)-3-fluoroallyl)-1H-indole-5-yl)(pyrrolidin-1-yl)methanone]	96 nM	13400 nM
CN(C)C(=O)c1cnn(C/C(=C/F)CN)c1 [Compound B29, (E)-1-(2-(aminomethyl)-3-fluoroallyl)-N,N-dimethyl-1H-pyrazole-4-carboxamide]	70 nM	10800 nM
CCNC(=O)c1cnn(C/C(=C/F)CN)c1 [Compound B2, (E)-1-(2-(aminomethyl)-3-fluoroallyl)-N-ethyl-1H-pyrazole-4-carboxamide]	55 nM	5380 nM
NC/C(=C\F)Cn1ccc2cc(C(=O)N3CCC3)ccc21 [Compound C13 hydrochloride, (E)-(1-(2-(aminomethyl)-3-fluoroallyl)-1H-indol-5-yl)(azetidin-1-yl)methanone]	67 nM	1080 nM
NC/C(=C\F)Cn1cc(C(=O)Nc2ccc(Cl)cc2)cn1 [Compound B28, (E)-1-(2-aminomethyl-3-fluoroallyl)-N-4-chlorophenyl-1H-pyrazole-4-carboxamide]	14 nM	–
COC1CCN(C(=O)c2ccc3c(ccn3C/C(=C/F)CN)c2)CC1 [Compound C14 hydrochloride, (E)-(1-(2-(aminomethyl)-3-fluoroallyl)-1H-indol-5-yl)(4-methoxypiperidin-1-yl)methanone]	50 nM	13100 nM
CCN1Cc2cnn(C/C(=C/F)CN)c2C1=O [Compound A31 hydrochloride, (E)-1-(2-(aminomethyl)-3-fluoroallyl)-5-ethyl-4,5-dihydropyrrolo[3,4-c]pyrazol-6(1H)-one]	53 nM	8280 nM
NC/C(=C\F)Cn1cc2c(n1)CCN(C1CCC1)C2=O [Compound A9 hydrochloride, (E)-2-(2-(aminomethyl)-3-fluoroallyl)-5-cyclobutyl-2,5,6,7-tetrahydro-4H-pyrazolo[4,3-c]pyridin-4-one]	37 nM	911 nM
CC(C)(C)N1Cc2nn(C/C(=C/F)CN)cc2C1=O [Compound A13, (E)-2-(2-(aminomethyl)-3-fluoroallyl)-5-(tert-butyl)-5,6-dihydropyrrolo[3,4-c]pyrazol-4(2H)-one]	58 nM	4180 nM
CC(C)(C)N1CCc2c(cnn2C/C(=C/F)CN)C1=O [Compound A21, (E)-1-(2-(aminomethyl)-3-fluoroallyl)-5-(tert-butyl)-1,5,6,7-tetrahydro-4H-pyrazolo[4,3-c]pyridin-4-one]	96 nM	4050 nM
COC1(C)CCN(C(=O)c2ccc3c(ccn3C/C(=C/F)CN)c2)CC1 [Compound C15 hydrochloride, (E)-(1-(2-(aminomethyl)-3-fluoroallyl)-1H-indol-5-yl)(4-methoxy-4-methylpiperidin-1-yl)methanone]	63 nM	8380 nM
CC(C)(C)NC(=O)c1cnn(C/C(=C/F)CN)c1 [Compound B3, (E)-1-(2-(aminomethyl)-3-fluoroallyl)-N-(tert-butyl)-1H-pyrazole-4-carboxamide]	89 nM	12500 nM
CC(C)N1CCc2nn(C/C(=C/F)CN)cc2C1=O [Compound A27 hydrochloride, (E)-2-(2-(aminomethyl)-3-fluoroallyl)-5-isopropyl-2,5,6,7-tetrahydro-4H-pyrazolo[4,3-c]pyridin-4-one]	112 nM	9650 nM
CC(C)(C)NC(=O)c1ccn(C/C(=C/F)CN)c1 [Compound B12, (E)-1-(2-aminomethyl-3-fluoroallyl)-N-tert-butyl-1H-pyrrole-3-carboxamide]	83 nM	8580 nM
CCC(C)(C)N1CCc2nn(C/C(=C/F)CN)cc2C1=O [Compound A49 hydrochloride, (E)-2-(2-(aminomethyl)-3-fluoroallyl)-5-(tert-pentyl)-2,5,6,7-tetrahydro-4H-pyrazolo[4,3-c]pyridin-4-one]	17 nM	–
NC/C(=C\F)Cn1cc2c(n1)CCN(C1CCCC1)C2=O [Compound A10 hydrochloride, (E)-2-(2-(aminomethyl)-3-fluoroallyl)-5-cyclopentyl-2,5,6,7-tetrahydro-4H-pyrazolo[4,3-c]pyridin-4-one]	40 nM	1240 nM
COCCN1CCc2nn(C/C(=C/F)CN)cc2C1=O [Compound A47 hydrochloride, (E)-2-(2-(aminomethyl)-3-fluoroallyl)-5-(2-methoxyethyl)-2,5,6,7-tetrahydro-4H-pyrazolo[4,3-c]pyridin-4-one]	20 nM	–
